The target of one assay is T1, BRAF (V600E) kinase (Homo sapiens, UniProt P15056, V600E).
T1 construct: area encoding the BRAF kinase domain region, so that the protein contains an N-terminal Flag; made in house; host or cells: SF-21 insect cells infected with recombinant baculovirus BAC-V600E
Briefly: Determination of BRAF (V600E) kinase inhibitory activity. The format is biochemical. The conditions noted are these: compound 1.0 μm; substrate GSTP1-MEK1 (K96R), [γ-32P]ATP. Here is the method: Determination of BRAF (V600E) Kinase Inhibitory Activity
A test compound (2.5 μL) dissolved in dimethyl sulfoxide (DMSO) was added to 37.5 μL of a reaction solution (25 mM HEPES (pH 7.5), 10 mM magnesium acetate, 1 mM dithiothreitol) containing 30 ng of BRAF (V600E) enzyme and 250 ng of recombinant protein GSTP1-MEK1 (K96R) prepared using FreeStyle 293 expression system (Invitrogen), and the mixture was incubated at room temperature for 10 min. 10 μL of ATP solution (2.5 μM ATP, 0.1 μCi [γ-^32P]ATP) was added to the obtained mixture, and the mixture was reacted at room temperature for 20 min. The reaction was quenched by adding 50 μL of ice-cooled 20% trichloroacetic acid (Wako Pure Chemical Industries, Ltd.) to the reaction solution. The reaction solution was allowed to stand at 4° C. for 30 min., and the acid-precipitable fraction was transferred to GF/C filter plate (Millipore Corporation) using cell harvester (PerkinElmer). The plate was dried at 45° C. for 60 min., and 40 μL of MicroScinti 0 (PerkinElmer) was added thereto. The radioactivity was measured using TopCount (PerkinElmer). The kinase inhibitory rate (%) of the test compound was calculated by the following formula: Inhibitory rate (%)=(1−(count of test compound−blank)÷(control−blank))×100
The count of the solution reacted without addition of the compound was used as a “control”, and the count of the solution without the compound and enzyme was used as a “blank”.

Assay [1] has as its system MEK1/2 phosphorylation in human colorectal cancer cell HT-29. The assay is described as follows: Colorectal cancer cell HT-29 intracellular MEK phosphorylation inhibitory activity in vitro. The format is cell-based. The following applies: HT-29 cells; for IC50: 2 hrs treatment, phosphorylated MEK1/2 by Western blot; for inhibition at 0.5 µM: MEK1/2 protein phosphorylation, compound 0.5 μM, 2 hrs, read-out: inhibitory rate (%) at 0.5 μM. The procedure:
Colorectal Cancer Cell HT-29 Intracellular MEK Phosphorylation Inhibitory Activity In Vitro
500 μL of a cell suspension of human colorectal cancer cell HT-29 (purchased from American Type Culture Collection (ATCC)) was plated in a 48-well plate (100,000 cells/well), and the cells were cultured overnight at 37° C. in the presence of 5% CO2, treated with a test compound (250 μL/well) diluted in 3-fold dilution series and cultured for 2 hrs. After 2 hrs, the culture medium containing the test compound was removed, and the cells were lysed with SDS sample buffer (100 μL/well) and heated at 95° C. for 5 min. Thereafter, the cells lysed with SDS sample buffer were applied to SDS-PAGE, and the protein was transferred onto Sequi-Blot™ PVDF Membrane (Bio-Rad) by the Western blot method. The PDVF membrane was blocked with a Block-Ace solution (Snow Brand Milk Products Co., Ltd) dissolved in phosphate buffered saline (MP Biochemicals) to 5% W/V, and reacted overnight with anti-phosphorylated MEK1/2 (Ser217/221) (Cell signaling) diluted 1000-fold with phosphate buffered saline containing 0.4% Block-Ace. The membrane was washed with phosphate buffered saline containing 0.1% Tween 20 (Wako Pure Chemical Industries, Ltd.), and reacted at room temperature for 1 hr with HRP labeled rabbit IgG polyclonal antibody (Cell signaling) diluted 1000-fold with phosphate buffered saline containing 0.4% Block-Ace. The membrane was washed in the same manner as above, chemical luminescence of a phosphorylated MEK1/2 protein labeled with the antibody, which was caused by ECL-plus Detection Reagent (Amersham bioscience), was detected by Luminescent Image Analyzer LAS-1000 (FUJIFILM Corporation). Taking the luminescence of the control group free of the test compound as 100%, the concentration (IC50 value) of the compound necessary for inhibiting the residual luminescence to 50% of the control group was calculated. The results are shown in Table 3-A. In addition, MEK1/2 protein phosphorylation inhibitory rate (%) of the test compound at compound concentration 0.5 μM was calculated by the following formula. The results are shown in Table 3-B. Inhibitory rate (%)=(1−(luminescence of test compound−blank)÷(luminescence of control group−blank))×100
(In general: Immunoblotting shows a protein as a band on a membrane.)

Assay [2] deals with human colorectal cancer cell HT-29. The assay is described as follows: Colorectal cancer cell HT-29 growth suppressive activity in vitro. The conditions noted are these: 72 h, HT-29 cells, SRB staining; for IC50: 3 days culture; for inhibition at 5 µM: cell proliferation, compound 5.0 μM, 3 days, read-out: inhibitory rate (%) at 5.0 μM. Format: cell-based. Here is the method: Colorectal Cancer Cell HT-29 Growth Suppressive Activity in Vitro
100 μL of a cell suspension (3,000 cells/well) of human colorectal cancer cell HT-29 (purchased from ATCC) was plated in a 96-well plate, and the cells were cultured at 37° C. in a 5% CO2 gas incubator. The next day, 100 μL of each test compound solution diluted in 2-fold serial dilution, diluted from maximum concentration 20 μM, was added, and the cells were cultured for 3 days. As for Example 44, 100 μl of each test compound solution (4-fold serially diluted, diluted from maximum concentration 20 μM) was added, and the cells were cultured for 3 days. The culture medium containing the test compound was removed, and the cells were washed with phosphate buffered saline (PBS). A 50% trichloroacetic acid solution was added to the final concentration of 10% (v/v), and the mixture was stood overnight at 4° C., whereby the cells were fixed to the plate. Then, a dye SRB 0.4% (w/v) solution (dissolved in 1% acetic acid) was added at 50 μl/well, whereby the cell protein was fixed and stained (Skehan et al., Journal Of National Cancer Institute, vol. 82, pp. 1107-1112, 1990). The cells were washed 3 times with 1% acetic acid solution (200 μL/well), and 100 μL of an extract (10 mM Tris buffer) was added to extract the dye. The absorbance at an absorption wavelength 550 nm was measured, and cell amount was measured as a protein amount. Taking the protein amount of the control group free of the test compound solution as 100%, the proportion of the residual protein amount of each treatment group was determined and the concentration of the compound necessary for suppressing the residual cell amount to 50% of the control (IC50 value) was calculated. The results are shown in Table 4-A. In addition, cell proliferation inhibitory rate (%) of the test compound at compound concentration 5.0 μM was calculated by the following formula. The results are shown in Table 4-B. Inhibitory rate (%)=(1−(absorbance of test compound−blank)÷(absorbance of control group−blank))×100

As a reminder, the IC50 is the concentration that inhibits the measured activity by half. Lower therefore signals greater potency.

T1 sequence (P15056 457-717 V600E limits assumed): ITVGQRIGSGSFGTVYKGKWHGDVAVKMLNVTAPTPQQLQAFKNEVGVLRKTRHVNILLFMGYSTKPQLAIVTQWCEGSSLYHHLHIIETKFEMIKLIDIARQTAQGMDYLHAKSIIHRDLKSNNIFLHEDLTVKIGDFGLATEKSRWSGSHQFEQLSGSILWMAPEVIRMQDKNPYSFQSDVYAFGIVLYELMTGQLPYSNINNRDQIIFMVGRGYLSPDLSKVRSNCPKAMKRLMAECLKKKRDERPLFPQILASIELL

For `CN(c1ccc(F)c(NC(=O)Nc2ccc(C(F)(F)F)cc2)c1)c1ccc2nc(NC(=O)C3CC3)sc2n1` [Example 1, N-(5-{[4-fluoro-3-({[4-(trifluoromethyl)phenyl]carbamoyl}amino)phenyl](methyl)amino}[1,3]thiazolo[5,4-b]pyridin-2-yl)cyclopropanecarboxamide], on BRAF (V600E) kinase, the “inhibitory rate (%) at 1.0 μm” value was found to be 98%.
As to `CN(c1ccc(F)c(NC(=O)Nc2ccc(C(C)(C)C)cc2)c1)c1ccc2nc(NC(=O)C3CC3)sc2n1` [Example 3, N-{5-[(3-{[(4-tert-butylphenyl)carbamoyl]amino-}-4-fluorophenyl)(methyl)amino][1,3]thiazolo[5,4-b]pyridin-2-yl}cyclopropanecarboxamide], in assay [1], the IC50 is less than 300 nM and the inhibition at 0.5 µM worked out at 94%.
Turning to `CN(c1cccc(NC(=O)Nc2ccc(OC(F)(F)F)cc2)c1)c1ccc2nc(NC(=O)C3CC3)sc2n1` [Example 9, N-(5-{methyl[3-({[4-(trifluoromethoxy)phenyl]carbamoyl}amino)phenyl]amino}[1,3]thiazolo[5,4-b]pyridin-2-yl)cyclopropanecarboxamide], in assay [2], the IC50 is less than 500 nM and the inhibition at 5 µM came to 100%.
In the case of `CN(c1cccc(NC(=O)Nc2ccc(Cl)c(C(F)(F)F)c2)c1)c1ccc2nc(NC(=O)C3CC3)sc2n1` [Example 11, N-(5-{[3-({[4-chloro-3-(trifluoromethyl)phenyl]carbamoyl}amino)phenyl](methyl)amino}[1,3]thiazolo[5,4-b]pyridin-2-yl)cyclopropanecarboxamide], the “inhibitory rate (%) at 1.0 μm” value on BRAF (V600E) kinase turned out to be 99%.
With `O=C(Nc1ccc(Cl)c(C(F)(F)F)c1)Nc1cc(Nc2ccc3nc(NC(=O)C4CC4)sc3n2)ccc1F` [Example 13, N-(5-{[3-({[4-chloro-3-(trifluoromethyl)phenyl]carbamoyl}amino)-4-fluorophenyl]amino}[1,3]thiazolo[5,4-b]pyridin-2-yl)cyclopropanecarboxamide], in assay [1], the IC50 is less than 300 nM and the inhibition at 0.5 µM is 98%.
For `O=C(Cc1ccccc1C(F)(F)F)Nc1cc(Oc2ccc3nc(NC(=O)C4CC4)sc3n2)ccc1F` [Example 19, N-{5-[4-fluoro-3-({[2-(trifluoromethyl)phenyl]acetyl}amino)phenoxy][1,3]thiazolo[5,4-b]pyridin-2-yl}cyclopropanecarboxamide], on BRAF (V600E) kinase, the “inhibitory rate (%) at 1.0 μm” value is reported as 100%.
The same measure, in the same setting: as for `O=C(Cc1ccc(C(F)(F)F)cc1)Nc1cc(Oc2ccc3nc(NC(=O)C4CC4)sc3n2)ccc1F` [Example 21, N-{5-[4-fluoro-3-[{(4-(trifluoromethyl)phenyl]acetyl}amino)phenoxy][1,3]thiazolo[5,4-b]pyridin-2-yl}cyclopropanecarboxamide], the figure is 98%.
Consider `O=C(Cc1cccc(C(F)(F)F)c1)Nc1cc(Oc2ccc3nc(NC(=O)C4CC4)sc3n2)ccc1F` [Example 22, N-{5-[4-fluoro-3-({[3-(trifluoromethyl)phenyl]acetyl}amino)phenoxy][1,3]thiazolo[5,4-b]pyridin-2-yl}cyclopropanecarboxamide], for which, in assay [1], the inhibition at 0.5 µM amounted to 88%.
Take `O=C(Nc1cccc(C(F)(F)F)c1)Nc1cc(Oc2ccc3nc(NC(=O)C4CC4)sc3n2)ccc1F` [Example 23, N-{5-[4-fluoro-3-({[3-(trifluoromethyl)phenyl]carbamoyl}amino)phenoxy][1,3]thiazolo[5,4-b]pyridin-2-yl}cyclopropanecarboxamide]: in assay [1], the IC50 was less than 300 nM and the inhibition at 0.5 µM was 88%.
Consider `O=C(Nc1ccc(C(F)(F)F)nc1)Nc1cc(Oc2ccc3nc(NC(=O)C4CC4)sc3n2)ccc1F` [Example 29, N-{5-[4-fluoro-3-({[6-(trifluoromethyl)pyridin-3-yl]carbamoyl}amino)phenoxy][1,3]thiazolo[5,4-b]pyridin-2-yl}cyclopropanecarboxamide], for which, in assay [2], the IC50 was less than 500 nM and the inhibition at 5 µM was 74%.
Consider `Cc1ccc(NC(=O)Cc2ccsc2)cc1Oc1ccc2nc(NC(=O)C3CC3)sc2n1` [Example 44, N-(5-{2-methyl-5-[(thiophen-3-ylacetyl)amino]-phenoxy} [1,3]thia-zolo[5,4-b]pyridin-2-yl)cyclo-propanecarboxamide], for which, in assay [2], the 50% inhibitory concentration (IC50) is less than 500 nM and the inhibition at 5 µM came to 98%.

Values taken from patent US8697874B2, “Heterocyclic compound and use thereof” (Takeda Pharmaceutical Company Limited, priority 2008, dated 2014).
